Test results as given in ChEMBL document CHEMBL4651402, “Screening of ~5500 FDA-approved drugs and clinical candidates for anti-SARS-CoV-2 activity” (2021).

System: SARS-CoV-2
Assay: microbe, parasite or virus in culture
Conditions: Severe acute respiratory syndrome coronavirus 2, Vero C1008, 48 h

C=C1c2c(Cl)ccc(O)c2C(=O)C2=C(O)[C@]3(O)C(=O)C(C(N)=O)=C(O)[C@@H](N(C)C)[C@@H]3[C@@H](O)[C@H]12 [MECLOCYCLINE]
IC50: > 20 µM | IC50 (read-out: pIC50 (converted)): > 20 µM

Cc1ccc(Cl)c(Nc2ccccc2C(=O)O)c1Cl [MECLOFENAMIC ACID]
IC50: > 20 µM | IC50 (read-out: pIC50 (converted)): > 20 µM

CN(C)CCOC(=O)COc1ccc(Cl)cc1 [MECLOFENOXATE]
IC50: > 20 µM | IC50 (read-out: pIC50 (converted)): > 20 µM

Cc1nc2ccccc2c(=O)n1-c1ccccc1Cl [MECLOQUALONE]
IC50: > 20 µM | IC50 (read-out: pIC50 (converted)): > 20 µM

CNC(=O)NC(O)C(Cl)(Cl)Cl (centres undefined) [MECLORALUREA]
IC50: > 20 µM | IC50 (read-out: pIC50 (converted)): > 20 µM

COC(=O)C(N)CS (centres undefined) [MECYSTEINE]
IC50: > 20 µM | IC50 (read-out: pIC50 (converted)): > 20 µM

Cc1cccc(C(C)c2c[nH]cn2)c1C (centres undefined) [MEDETOMIDINE]
IC50: > 20 µM | IC50 (read-out: pIC50 (converted)): > 20 µM

CC(=O)[C@H]1CC[C@H]2[C@@H]3C[C@H](C)C4=CC(=O)CC[C@]4(C)[C@H]3[C@@H](O)C[C@]12C [MEDRYSONE]
IC50: > 20 µM | IC50 (read-out: pIC50 (converted)): > 20 µM

Cc1cccc(Nc2ccccc2C(=O)O)c1C [MEFENAMIC ACID]
IC50: > 20 µM | IC50 (read-out: pIC50 (converted)): > 20 µM

CCN(CC)CCNC(=O)COc1ccc(OC)cc1 [MEFEXAMIDE]
IC50: > 20 µM | IC50 (read-out: pIC50 (converted)): > 20 µM

CN(CC1(C)CCCO1)S(=O)(=O)c1ccc(Cl)c(S(N)(=O)=O)c1 (centres undefined) [MEFRUSIDE]
IC50: > 20 µM | IC50 (read-out: pIC50 (converted)): > 20 µM

CC(=O)O[C@]1(C(C)=O)CC[C@H]2[C@@H]3C=C(C)C4=CC(=O)CC[C@]4(C)[C@H]3CC[C@@]21C [MEGESTROL ACETATE]
IC50: > 20 µM | IC50 (read-out: pIC50 (converted)): > 20 µM

CNC[C@H](O)[C@@H](O)[C@H](O)[C@H](O)CO [MEGLUMINE]
IC50: > 20 µM | IC50 (read-out: pIC50 (converted)): > 20 µM

CC(O)(CC(=O)O)CC(=O)O [MEGLUTOL]
IC50: > 20 µM | IC50 (read-out: pIC50 (converted)): > 20 µM

COc1ccc2[nH]cc(CCNC(C)=O)c2c1 [MELATONIN]
IC50: > 20 µM | IC50 (read-out: pIC50 (converted)): > 20 µM

CCCCC/C=C/C/C=C/CCCCCCCC(=O)NC(C)c1ccccc1 (centres undefined) [MELINAMIDE]
IC50: > 20 µM | IC50 (read-out: pIC50 (converted)): > 20 µM

Cc1cnc(NC(=O)C2=C(O)c3ccccc3S(=O)(=O)N2C)s1 [MELOXICAM]
IC50: > 20 µM | IC50 (read-out: pIC50 (converted)): > 20 µM

CC1CCN(CCCC(=O)c2ccc(F)cc2)CC1 [MELPERONE]
IC50: > 20 µM | IC50 (read-out: pIC50 (converted)): > 20 µM

CC12CC3CC(C)(C1)CC(N)(C3)C2 [MEMANTINE]
IC50: > 20 µM | IC50 (read-out: pIC50 (converted)): > 20 µM

CC1=CC(=O)c2ccccc2C1=O [MENADIONE]
IC50: > 20 µM | IC50 (read-out: pIC50 (converted)): > 20 µM

CC(C)=CCC/C(C)=C/CC1=C(C)C(=O)c2ccccc2C1=O [MENAQUINONE-2]
IC50: > 20 µM | IC50 (read-out: pIC50 (converted)): > 20 µM

CC(C)=CCC/C(C)=C/CC/C(C)=C/CC/C(C)=C/CC1=C(C)C(=O)c2ccccc2C1=O [MENATETRENONE]
IC50: > 20 µM | IC50 (read-out: pIC50 (converted)): > 20 µM

CC1CCC(C(C)C)C(O)C1 (centres undefined) [MENTHOL]
IC50: > 20 µM | IC50 (read-out: pIC50 (converted)): > 20 µM

C/N=C(/NC)NCc1ccc(OC)cc1 [MEOBENTINE]
IC50: > 20 µM | IC50 (read-out: pIC50 (converted)): > 20 µM

CN1CCCC(CN2c3ccccc3Sc3ccccc32)C1 (centres undefined) [MEPAZINE]
IC50: > 20 µM | IC50 (read-out: pIC50 (converted)): > 20 µM

C[N+]1(C)CCCC(OC(=O)C(O)(c2ccccc2)c2ccccc2)C1 (centres undefined) [MEPENZOLATE]
IC50: > 20 µM | IC50 (read-out: pIC50 (converted)): > 20 µM

CCOC(=O)C1(c2ccccc2)CCN(C)CC1 [MEPERIDINE]
IC50: > 20 µM | IC50 (read-out: pIC50 (converted)): > 20 µM

Cc1ccccc1OCC(O)CO (centres undefined) [MEPHENESIN]
IC50: > 20 µM | IC50 (read-out: pIC50 (converted)): > 20 µM

COc1ccccc1OCC1CNC(=O)O1 (centres undefined) [MEPHENOXALONE]
IC50: > 20 µM | IC50 (read-out: pIC50 (converted)): > 20 µM

CNC(C)(C)Cc1ccccc1 [MEPHENTERMINE]
IC50: > 20 µM | IC50 (read-out: pIC50 (converted)): > 20 µM

CCC1(c2ccccc2)C(=O)NC(=O)N(C)C1=O (centres undefined) [MEPHOBARBITAL]
IC50: > 20 µM | IC50 (read-out: pIC50 (converted)): > 20 µM

Cc1cc(CCN2CCN(c3cccc(Cl)c3)CC2)n[nH]1 [MEPIPRAZOLE]
IC50: > 20 µM | IC50 (read-out: pIC50 (converted)): > 20 µM

Cc1cccc(C)c1NC(=O)C1CCCCN1C (centres undefined) [MEPIVACAINE]
IC50: > 20 µM | IC50 (read-out: pIC50 (converted)): > 20 µM

COc1cccc([C@H]2C[C@@H](N[C@H](C)c3ccccc3)C(=O)N2c2ccc(C(F)(F)F)cc2)c1 [MEPPEP]
IC50: > 20 µM | IC50 (read-out: pIC50 (converted)): > 20 µM

CCCC(C)(COC(N)=O)COC(N)=O [MEPROBAMATE]
IC50: > 20 µM | IC50 (read-out: pIC50 (converted)): > 20 µM

CCCNC(C)(C)COC(=O)c1ccccc1 [MEPRYLCAINE]
IC50: > 20 µM | IC50 (read-out: pIC50 (converted)): > 20 µM

CCC1(c2cccc(O)c2)CCCCN(C)C1 (centres undefined) [MEPTAZINOL]
IC50: > 20 µM | IC50 (read-out: pIC50 (converted)): > 20 µM

COc1ccc(O)cc1 [MEQUINOL]
IC50: > 20 µM | IC50 (read-out: pIC50 (converted)): > 20 µM

Sc1ncnc2nc[nH]c12 [MERCAPTOPURINE ANHYDROUS]
IC50: > 20 µM | IC50 (read-out: pIC50 (converted)): > 20 µM

Cc1ccc(C(=O)Nc2ccc(Oc3cc4cnn(C)c4cc3-c3cn[nH]c3)c(F)c2)c(=O)n1-c1ccc(F)cc1 [MERESTINIB]
IC50: > 20 µM | IC50 (read-out: pIC50 (converted)): > 20 µM

CC(C)C(=O)OC[C@H]1O[C@@H](n2ccc(N)nc2=O)[C@](C)(F)[C@@H]1OC(=O)C(C)C [MERICITABINE]
IC50: > 20 µM | IC50 (read-out: pIC50 (converted)): > 20 µM

COc1cc(NC(=O)Nc2cccc(CNC(=O)O[C@H]3CCOC3)c2)ccc1-c1cnco1 [MERIMEPODIB]
IC50: > 20 µM | IC50 (read-out: pIC50 (converted)): > 20 µM

C[C@@H](O)[C@H]1C(=O)N2C(C(=O)O)=C(S[C@@H]3CN[C@H](C(=O)N(C)C)C3)[C@H](C)[C@H]12 [MEROPENEM]
IC50: > 20 µM | IC50 (read-out: pIC50 (converted)): > 20 µM

Nc1ccc(O)c(C(=O)O)c1 [MESALAMINE]
IC50: > 20 µM | IC50 (read-out: pIC50 (converted)): > 20 µM

CC1CC2Oc3ccc(Cl)cc3C(=O)N2O1 (centres undefined) [MESECLAZONE]
IC50: > 20 µM | IC50 (read-out: pIC50 (converted)): > 20 µM

CN1CCCCC1CCN1c2ccccc2Sc2ccc([S+](C)[O-])cc21 (centres undefined) [MESORIDAZINE]
IC50: > 20 µM | IC50 (read-out: pIC50 (converted)): > 20 µM

CCOC(=O)C1=C(C)NC(C)=C(C(=O)OCC)C1c1cccnc1SC [MESUDIPINE]
IC50: > 20 µM | IC50 (read-out: pIC50 (converted)): > 20 µM

CC(=O)Nc1cccc(O)c1 [METACETAMOL]
IC50: > 20 µM | IC50 (read-out: pIC50 (converted)): > 20 µM

COCC1CN=C(c2ccccc2Cl)c2cc(Br)ccc2N1C (centres undefined) [METACLAZEPAM]
IC50: > 20 µM | IC50 (read-out: pIC50 (converted)): > 20 µM

COc1cc2c(cc1OC)C(=O)OC2 [METAMECONINE]
IC50: > 20 µM | IC50 (read-out: pIC50 (converted)): > 20 µM

Cc1c(N(C)CS(=O)(=O)O)c(=O)n(-c2ccccc2)n1C [METAMIZOLE]
IC50: > 20 µM | IC50 (read-out: pIC50 (converted)): > 20 µM

CNCC(O)c1ccc(O)c(OC)c1 (centres undefined) [METANEPHRINE]
IC50: > 20 µM | IC50 (read-out: pIC50 (converted)): > 20 µM

C[C@H](N)[C@H](O)c1cccc(O)c1 [METARAMINOL]
IC50: > 20 µM | IC50 (read-out: pIC50 (converted)): > 20 µM

Cc1cc(C)cc(OCC2CNC(=O)O2)c1 (centres undefined) [METAXALONE]
IC50: > 20 µM | IC50 (read-out: pIC50 (converted)): > 20 µM

CN1C[C@H](CNC(=O)OCc2ccccc2)C[C@@H]2c3cccc4c3c(cn4C)C[C@H]21 [METERGOLINE]
IC50: > 20 µM | IC50 (read-out: pIC50 (converted)): > 20 µM

CN(C)C(=N)NC(=N)N [METFORMIN]
IC50: > 20 µM | IC50 (read-out: pIC50 (converted)): > 20 µM

CC(=O)OC(C)C[N+](C)(C)C (centres undefined) [METHACHOLINE]
IC50: > 20 µM | IC50 (read-out: pIC50 (converted)): > 20 µM

C=C1c2cccc(O)c2C(=O)C2=C(O)[C@]3(O)C(=O)C(C(N)=O)=C(O)[C@@H](N(C)C)[C@@H]3[C@@H](O)[C@H]12 [METHACYCLINE]
IC50: > 20 µM | IC50 (read-out: pIC50 (converted)): > 20 µM

C=CC(C)NC(=S)NNC(=S)NC (centres undefined) [METHALLIBURE]
IC50: > 20 µM | IC50 (read-out: pIC50 (converted)): > 20 µM

CN[C@@H](C)Cc1ccccc1 [METHAMPHETAMINE]
IC50: > 20 µM | IC50 (read-out: pIC50 (converted)): > 20 µM

O=C(NNCS(=O)(=O)O)c1ccncc1 [METHANIAZIDE]
IC50: > 20 µM | IC50 (read-out: pIC50 (converted)): > 20 µM

Cc1ccccc1-n1c(C)nc2ccccc2c1=O [METHAQUALONE]
IC50: > 20 µM | IC50 (read-out: pIC50 (converted)): > 20 µM

CCC1(CC)C(=O)NC(=O)N(C)C1=O [METHARBITAL]
IC50: > 20 µM | IC50 (read-out: pIC50 (converted)): > 20 µM

CC(=O)/N=c1/sc(S(N)(=O)=O)nn1C [METHAZOLAMIDE]
IC50: > 20 µM | IC50 (read-out: pIC50 (converted)): > 20 µM

C1N2CN3CN1CN(C2)C3 [METHENAMINE]
IC50: > 20 µM | IC50 (read-out: pIC50 (converted)): > 20 µM

COc1cccc(OC)c1C(=O)N[C@@H]1C(=O)N2[C@@H]1SC(C)(C)[C@@H]2C(=O)O [METHICILLIN]
IC50: > 20 µM | IC50 (read-out: pIC50 (converted)): > 20 µM

Cn1ccnc1S [METHIMAZOLE]
IC50: > 20 µM | IC50 (read-out: pIC50 (converted)): > 20 µM
